Values after ≈ are worked out from the molar mass of the structure shown.
Experiments:
Rattus norvegicus = assay: Compound was evaluated ex vivo for inhibition of LTB4 production in rat air pouch inflammatory exudate at 3 hr after peroral administration.; assay type: functional; details: po
Homo sapiens = species on record: Homo sapiens; assay: In vitro inhibition of LTB4 production in human blood.; assay type: functional
[1] = Aqueous solubility was determined; assay type: physicochemical

IC50 (Homo sapiens) [nM]	solubility [1] [µM]	Structure (SMILES)	ED50 (Rattus norvegicus) [mg/kg]
500		COC1(/C=C/COCc2ccc3c(ccc(=O)n3C)c2)CCOCC1	> 5
2100		COC1(/C(C)=C/C(=O)OCc2ccc3c(ccc(=O)n3C)c2)CCOCC1	> 5
1700		COC1(/C=C/C(=O)OCc2ccc3c(ccc(=O)n3C)c2)CCOCC1	> 5
> 10000		COC1(C(=O)CC(=O)OCc2ccc3c(ccc(=O)n3C)c2)CCOCC1	> 5
40	150 (≈ 55.9 µg/mL)	COC1(C(=N)/C=C(\O)OCc2ccc3c(ccc(=O)n3C)c2)CCOCC1	3
	3.8 (≈ 1.51 µg/mL)	COC1(c2cc(F)cc(OCc3ccc4c(ccc(=O)n4C)c3)c2)CCOCC1 [ZD-2138]	0.3
60	25 (≈ 9.41 µg/mL)	COC1(C(=N)/C=C(\O)OCc2ccc3c(c2)OCC(=O)N3C)CCOCC1	5
2600		CO/C(=C\C(=O)OCc1ccc2c(ccc(=O)n2C)c1)C1(OC)CCOCC1	> 5
70	50 (≈ 17.1 µg/mL)	COC1(C(=N)/C=C(\O)OCc2ccc3ccccc3c2)CCOCC1	> 5
